# From patent US20080175813A1, “NOVEL ATTRACTANTS FOR VESPID WASPS” (PHEROTECH INTERNATIONAL INC., priority 2007, published 2008)
# Key:
# Format in all cases: in vivo
# Vespula pennsylvanica [1] = experiment: Experiment 1: field trapping in Oak Stump traps, chopped dried apples as supplement for heptyl butyrate; conditions: Experiment 1, N = 12, Oak Stump traps, 8-11 Sep. 2006, 12 g chopped dried apples in capture water
# Description: The experiment was run for 3 days in Tilbury Industrial Park in Delta, B.C. from 8-11 Sep. 2006. Large 2 L Oak Stump traps, with a single transverse entry tube, and 300-350 mL of water with 2-3 drops of liquid detergent added in the bottom of the interior chamber, were hung at eye level from trees or woody bushes. Traps for each of three treatments were deployed in 12 randomized complete blocks, with ≧5 m between traps. […] Almost all captured wasps were western yellowjackets, Vespula pennsylvanica. The very few Polistes spp. captured (no more than two per trap, with most traps having none) were not counted.
# Vespula pennsylvanica [2] = experiment: Experiment 3: field trapping, wet vs dry apple pomace as supplements for heptyl butyrate; conditions: Experiment 3, N = 12, 21-22 Sep. 2006, 12 g apple pomace in mesh bag, suspended dry or immersed in capture water
# Description: The experiment ran from 21-22 Sep. 2006, at the same location as the first two experiments. All other experimental conditions were the same as above. Twelve replicates of three treatments were tested: 1) heptyl butyrate alone, 2) heptyl butyrate plus a mesh bag containing 12 g of apple pomace suspended dry from the trap lid along with the heptyl butyrate lure, and 3) heptyl butyrate plus 12 g of apple pomace in a mesh bag immersed in the water-detergent capture medium in the bottom of the interior chamber.
# Vespula pennsylvanica [3] = experiment: Experiment 4: field trapping, apple pomace vs apple juice as supplements for heptyl butyrate; conditions: Experiment 4, N = 12, set up 29 Sep. 2006, collections Sept 30, Oct 2, Oct 4; 5 g apple pomace; apple juice replacing capture water
# Description: A final 12-replicate experiment was set up as above, and compared wet apple pomace with apple juice. The three treatments were: 1) heptyl butyrate alone, 2) heptyl butyrate plus apple juice, and 3) heptyl butyrate plus apple pomace. In the second treatment, apple juice (Sun-Rype Products Ltd., Kelowna, B.C.) with 2-3 drops of detergent added replaced the water-detergent capture medium in the bottom of the interior trap chamber. In the third treatment, the amount of apple pomace in the plastic mesh bag immersed in the water-detergent capture medium in the bottom of the interior chamber was reduced to 5 g, which is a realistic operational dose. The experiment was set up on 29 Sep. 2006, and captured wasps were removed from the traps and counted on September 30, October 2 and October 4.
# Vespula pennsylvanica [4] = experiment: Experiment 2: field trapping, apple pomace vs chopped dried apples as supplements for heptyl butyrate; conditions: Experiment 2, N = 15, 15-18 Sep. 2006, 12 g supplement in plastic mesh in capture water
# Description: The experiment was run for 3 days in Tilbury Industrial Park in Delta, B.C. from 8-11 Sep. 2006. Large 2 L Oak Stump traps, with a single transverse entry tube, and 300-350 mL of water with 2-3 drops of liquid detergent added in the bottom of the interior chamber, were hung at eye level from trees or woody bushes. Traps for each of three treatments were deployed in 12 randomized complete blocks, with ≧5 m between traps. […] Experiment 2, with 15 replicates, was run at the same location as Experiment 1 from 15-18 Sep. 2006. […] The apple pomace was obtained from Agrisource Food Products Inc., Richmond, B.C.
compound,measurement,setting,value
"CCCCCCCOC(=O)CCC [Heptyl butyrate alone, heptyl butyrate]",MEAN NUMBER OF WASPS CAPTURED ± SE,Vespula pennsylvanica [1],72.8 ± 13.9 b
same,MEAN NUMBER OF WASPS CAPTURED ± SE,Vespula pennsylvanica [1]; listed as heptyl butyrate,73
same,MEAN NUMBER OF WASPS CAPTURED ± SE,Vespula pennsylvanica [2],9.8 ± 2.0 ab
same,MEAN NUMBER OF WASPS CAPTURED ± SE,Vespula pennsylvanica [3],24.3 ± 6.7 a
same,MEAN NUMBER OF WASPS CAPTURED ± SE,Vespula pennsylvanica [4],15.7 ± 3.4 ab
